This test deals with Akita16 HA (crystal construct) (Influenza A virus (A/black swan/Akita/1/2016(H5N6)), UniProt A0A1L7N0F8).

These results are taken from PMC12036971 (2025).

As for `CC(=O)N[C@H]1[C@H](O[C@H]2[C@@H](O)[C@@H](CO)O[C@@H](O[C@H]3[C@H](O)[C@@H](O)C(O)O[C@@H]3CO)[C@@H]2O)O[C@H](CO)[C@@H](O)[C@@H]1O[C@@H]1O[C@H](CO)[C@H](O)[C@H](O[C@]2(C(=O)O)C[C@H](O)[C@@H](NC(C)=O)[C@H]([C@H](O)[C@H](O)CO)O2)[C@H]1O` (stereo partly shown) [LSTa, NeuAcα2-3Galβ1-3GlcNAcβ1-3Galβ1-4Glc], the “X-ray crystal structure of complex, 2.71 Å” value is on record as “Akita16-WT HA structure with avian-type receptor analog, LSTa”.
